The results in this text go back to patent publication US20260033988A1, “SYSTEM AND METHOD FOR ULTRASOUND-ENHANCED DELIVERY OF DRUGS” (Sonikure Holdings Limited, priority 2016, published 2026).

SMILES strings stand for the structures.

Data set [1] can be described thus: Ultrasound delivery of Riboflavin-5-Phosphate into porcine corneas, fluorescent measurement of extract. Particulars: epi-off; 0.1% solution; ultrasound 40 kHz, mechanical index 0.2, for 5 minutes or less. The method, then: Riboflavin-5-Phosphate (R5P), 1.5 mL, 0.1% solution was applied to a porcine eyeball, epi-off. The ultrasound parameters were 40 kHz, mechanical index 0.2. The cornea was in full contact with R5P over indicated time period. The cornea was excised and weighed. Extracted supernatant with R5P was used for fluorescent measurement.

Data set [2] has as its system experimental autoimmune uveitis (EAU). The experiment in a line: In vivo delivery of dexamethasone into mice eyes for treatment of experimental autoimmune uveitis (ultrasound versus intravitreal injection). Here is the method: The procedure relates to an in vivo study of delivering small molecules into mice eyes for treatment of experimental autoimmune uveitis (EAU). The small molecules used were dexamethasone, with of a molecular weight of about […]. For a given animal subject, the drug was delivered via intravitreal injection (10 μg in 1 μL balanced salt solution), to the left eye. For the right eye, the drug (10 μg in 1 μL balanced salt solution, repeat 3 times) was delivered by 40 kHz ultrasound.
A timeline is illustrated of the experimental procedure. EAU mice were provided as described. The final n=2, as one mouse was dead on day 10 during the first treatment. On day 0, EAU induction occurred. Baseline imaging by confocal scanning laser ophthalmology (cSLO) and optical coherence tomography (OCT) occurred on day 0. On day 10, the drug was applied via ultrasound on the right eye. The drug was applied via intravitreal injection to the left eye. On day 13, imaging was conducted via cSLO and OCT. On days 13, 17, and 20, the drug was delivered to the right eye via ultrasound. On day 21, the mice were sacrificed for histology. Imaging was conducted by cSLO and OCT.

The nature of data set [3]: Ultrasound delivery of riboflavin into ex vivo pig corneas. On the set-up: species or system porcine. Here is the method:
For example, a riboflavin molecule may be delivered into a cornea by ultrasound. An ex vivo study was conducted of delivering small molecules into porcine corneal tissue. The small molecules used was riboflavin. The small molecules may have a molecular weight of about 376 g/mol or less. By using ultrasound at 40 kHz, at least 15 μg/mL of riboflavin was delivered into the deep corneal stromal tissue.
An illustration is provided of riboflavin 1 mg/mL delivered into ex vivo pig corneas. The riboflavin concentration in μg/mL is shown for different circumstances, such as epithelium debrided (Epi-off) cornea with 30 minutes riboflavin contact, Epi-Off with 3 cycles of 90 seconds ultrasound+15 minutes breaks in between and Epi-Off with 3 cycles of 90 seconds ultrasound+5 minutes break in between. 0.1% Riboflavin solution, Peschke D was delivered in ex-vivo pig corneas. The 15 μg/mL safety threshold is exceeded by applying 3 cycles of 90 seconds ultrasound with 5 minute breaks in between.

In the case of `Cc1cc2nc3c(=O)[nH]c(=O)nc-3n(C[C@H](O)[C@H](O)[C@H](O)COP(=O)(O)O)c2cc1C` [Riboflavin-5-Phosphate], the “concentration delivered into porcine corneas compared with typical Dresden protocol (30 minutes instillation)” value in data set [1] is reported as “reached the therapeutic threshold”.
`C[C@@H]1C[C@H]2[C@@H]3CCC4=CC(=O)C=C[C@]4(C)[C@@]3(F)[C@@H](O)C[C@]2(C)[C@@]1(O)C(=O)CO` [dexamethasone]: in data set [2] (left eye, intravitreal injection 10 μg in 1 μL, retinal change still existed at day 21), the “retina injury (FFA photo and OCT sections)” value is recorded as “retina injury caused by intravitreal injection”. Also, in data set [2] (right eye of Mouse 1 and Mouse 2, drug delivered by 40 kHz ultrasound, days 13 and 21), the “retina injury (fundus photos, FFA)” value is listed as “no injury of retina”.
As to `Cc1cc2nc3c(=O)[nH]c(=O)nc-3n(C[C@H](O)[C@H](O)[C@H](O)CO)c2cc1C` [riboflavin], the “riboflavin concentration in cornea versus 15 μg/mL safety threshold” value in data set [3] (ex vivo pig cornea, Epi-Off, 0.1% riboflavin solution, 3 cycles of 90 seconds ultrasound with 5 minute breaks in between) is above 15 µg/mL. In addition, the “riboflavin delivered into the deep corneal stromal tissue” value in data set [3] (ex vivo porcine cornea, ultrasound at 40 kHz) is listed as “at least 15 μg/mL”.
